# Values joined by “and” are separate entries in the source; they are usually repeats but may differ in a detail not shown here. Equal entries are not always repeated.
# Experiments:
# [1] = test system: C57BL/6J mice; experiment: Fat-induced gut peptide release and plasma TG after meal or oil load; format: in vivo, mouse; conditions: for Plasma total GLP-1 at 3 h, AVE / ΔPlasma total PYY AUC (0-2 h), AVE / Plasma total GLP-1 at 3 h, individual animal / ΔPlasma total PYY AUC (0-2 h), individual animal: CpdB 10 mg/kg oral; for Plasma total GLP-1 at 3 h, AVE / ΔPlasma total PYY AUC (0-2 h), AVE / Plasma TG at 2 h after oil load, AVE: mean, N=5; for Plasma total GLP-1 at 3 h, individual animal / ΔPlasma total PYY AUC (0-2 h), individual animal / Plasma TG at 2 h after oil load, individual animal: single animal values
# Method: CpdB was suspended in 0.5% methylcellulose. Thirty minutes after administration, fat was loaded via oral gavage of either olive oil (8 mL·kg^−1) or liquid meal as described above (10 mL·kg^−1). Blood samples were collected precompound administration (defined as 0 h) and 1, 2, and 3 h after fat loading. Plasma levels of peptide tyrosine–tyrosine (PYY) and GLP‐1 were measured. To confirm the in vivo efficacy of CpdB, plasma TG levels were measured 2 h after olive oil loading. Mice orally loaded with water (8 mL·kg^−1) following vehicle administration were prepared as the control group.
# (§1) Blood samples were collected from the tail or facial vein without anesthesia and centrifuged at 1500 g for 10 min at 4 °C to isolate the plasma. To prevent degradation of incretin hormone, blood samples were treated with not only heparin/aprotinin but also a dipeptidyl peptidase‐4 (DPP‐4) inhibitor. Plasma alanine aminotransferase […] levels were measured by an Autoanalyzer 7180 (Hitachi High‐Technologies Corporation, Tokyo, Japan). GHb was measured with an automated GHb analyzer (HLC‐723G8; Tosoh, Tokyo, Japan). Plasma insulin was measured with an ELISA kit (Shibayagi Co., Ltd., Gunma, Japan). Plasma levels of total GLP‐1 and total PYY were also measured with an ELISA kit (Wako Pure Chemicals).
# [2] = Pharmacokinetics of CpdB in mice; format: in vivo; conditions: C57BL/6J, mouse, plasma, 30 mg·kg^−1, 30 mg/kg single oral, mice fed an HFD, read-out: average plasma CpdB level 24 h after administration
# Method: Fifty‐four‐week‐old C57BL/6J mice fed an HFD (45% kcal fat, 4.7 kcal·g^−1; D12451; Research Diets, Inc., New Brunswick, NJ, USA) were given a single oral administration of CpdB (30 mg·kg^−1). Blood samples were collected at 0.25, 0.5, 1, 2, 4, 8, and 24 h after the administration. Concentration of plasma CpdB in each sample was measured using liquid chromatography with tandem mass spectrometry as described in our previous report 18.
# [3] = test system: HFD-fed ob/ob mice; experiment: HFD-fed ob/ob mice study; format: in vivo, mouse
# Method: Male ob/ob mice were fed an HFD (D12451; Research Diets, Inc.) from 8 weeks of age to the end of the study. After 2 weeks of HFD feeding, the mice were divided into groups based on their body weight, food intake, glycated hemoglobin (GHb), and plasma biochemical parameters. […] Compounds were suspended in 0.5% methylcellulose. Body weight and food intake were monitored during the study. On day 34, blood was collected and GHb and plasma biochemical parameters were measured. In addition, body composition was analyzed by EchoMRI‐900 (Hitachi Aloka Medical, Ltd., Tokyo, Japan). On day 36, the mice in the vehicle‐ and CpdB‐treated group were individually placed in the metabolic chamber of an Oxymax system (Columbus Instruments, Columbus, OH, USA). After 3 h of adaptation, oxygen consumption (VO2) and carbon dioxide production (VCO2) were analyzed for 22 h (from 13:00 to 11:00). During the measurement, dosing of vehicle or CpdB was performed at 18:00. Respiratory quotient (RQ) and energy expenditure (EE) were calculated with the following formulas: RQ=VCO2/VO2 EEkcal/h=3.815+1.232×VCO2/VO2×VO2
# as §1
# [4] = target: mouse MGAT2 (Mus musculus, UniProt Q80W94); experiment: in vitro inhibitory activity against MGAT2 (mouse); format: biochemical
# Method: (§2) CpdB, CpdA, and pioglitazone were synthesized at Takeda Pharmaceutical Co., Ltd. (Tokyo, Japan). The in vitro inhibitory activities of CpdB and CpdA against MGAT2 and related acyltransferases (DGAT1, DGAT2, and ACAT1) were evaluated as described in our previous report 17 and patent application 19. Liraglutide (Victoza) was purchased from Novo Nordisk Pharma Ltd. (Bagsvaerd, Denmark). All other chemicals were of analytical grade and purchased from Wako Pure Chemicals (Osaka, Japan).
# [5] = target: human MGAT2 (Homo sapiens, UniProt Q3SYC2); experiment: in vitro inhibitory activity against MGAT2 (human); format: biochemical
# Method: as §2
# [6] = target: T1, ACAT1 human (Homo sapiens, UniProt P35610); experiment: in vitro inhibitory activity against ACAT1; format: biochemical
# T1 sequence (P35610 1-550): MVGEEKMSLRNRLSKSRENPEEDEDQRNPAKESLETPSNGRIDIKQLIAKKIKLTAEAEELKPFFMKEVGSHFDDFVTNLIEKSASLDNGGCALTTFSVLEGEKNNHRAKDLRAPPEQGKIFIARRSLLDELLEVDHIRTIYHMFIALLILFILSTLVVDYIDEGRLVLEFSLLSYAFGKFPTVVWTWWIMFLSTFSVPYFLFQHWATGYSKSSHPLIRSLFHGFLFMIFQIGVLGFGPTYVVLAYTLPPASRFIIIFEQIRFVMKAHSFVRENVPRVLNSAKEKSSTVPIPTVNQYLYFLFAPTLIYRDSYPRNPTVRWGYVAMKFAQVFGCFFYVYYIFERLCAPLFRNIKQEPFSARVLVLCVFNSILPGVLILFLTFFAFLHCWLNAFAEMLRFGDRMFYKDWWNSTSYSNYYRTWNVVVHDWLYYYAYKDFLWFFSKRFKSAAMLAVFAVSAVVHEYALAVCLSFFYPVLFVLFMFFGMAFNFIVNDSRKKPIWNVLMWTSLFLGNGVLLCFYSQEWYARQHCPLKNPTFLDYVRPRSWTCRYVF
# Method: as §2
# [7] = CpdB 30 mg/kg, pioglitazone 3 mg/kg oral once daily, mean
# [8] = CpdB 30 mg/kg, pioglitazone 3 mg/kg oral once daily, single animal values
# [9] = EchoMRI, day 34, CpdB 30 mg/kg, pioglitazone 3 mg/kg, mean
# [10] = EchoMRI, day 34, CpdB 30 mg/kg, pioglitazone 3 mg/kg, single animal values
# [11] = dark phase, day 36, CpdB 30 mg/kg, mean
# [12] = dark phase, day 36, CpdB 30 mg/kg, single animal values
# [13] = day 34, CpdB 30 mg/kg, pioglitazone 3 mg/kg oral once daily, mean ± SD, n=8
# [14] = light phase, day 36, CpdB 30 mg/kg, mean
# [15] = light phase, day 36, CpdB 30 mg/kg, single animal values
# human MGAT2, sequence (Q3SYC2 whole entry): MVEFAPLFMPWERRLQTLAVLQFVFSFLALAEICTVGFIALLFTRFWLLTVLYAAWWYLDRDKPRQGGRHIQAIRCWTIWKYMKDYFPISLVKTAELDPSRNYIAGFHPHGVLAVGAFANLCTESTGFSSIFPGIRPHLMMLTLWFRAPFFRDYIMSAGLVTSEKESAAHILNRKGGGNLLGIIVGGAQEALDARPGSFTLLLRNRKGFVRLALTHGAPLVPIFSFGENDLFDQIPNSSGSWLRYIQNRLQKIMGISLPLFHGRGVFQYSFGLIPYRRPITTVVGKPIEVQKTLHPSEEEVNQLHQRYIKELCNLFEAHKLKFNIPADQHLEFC
# mouse MGAT2, sequence (Q80W94 whole entry): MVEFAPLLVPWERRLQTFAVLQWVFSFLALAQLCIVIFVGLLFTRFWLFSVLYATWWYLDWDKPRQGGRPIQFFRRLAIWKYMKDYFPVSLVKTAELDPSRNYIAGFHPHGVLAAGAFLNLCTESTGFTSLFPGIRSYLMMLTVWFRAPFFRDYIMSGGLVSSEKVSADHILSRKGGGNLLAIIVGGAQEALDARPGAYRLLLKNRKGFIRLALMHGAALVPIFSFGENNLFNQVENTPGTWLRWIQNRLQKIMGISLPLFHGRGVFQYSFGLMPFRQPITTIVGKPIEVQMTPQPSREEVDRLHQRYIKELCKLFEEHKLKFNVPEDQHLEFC
structure (smiles),measurement,setting,value
CC(C)(OC(=O)N[C@H]1CC[C@H](OC(=O)N2CCc3cc(S(=O)(=O)Nc4c(F)cc(Cl)cc4F)cc(N4CCCC4=O)c32)CC1)C(F)(F)F [CpdB],"Plasma total GLP-1 at 3 h, AVE",[1]; liquid meal load,1.78 pM
same,"ΔPlasma total PYY AUC (0-2 h), AVE",[1]; liquid meal load,6.19 pMxh
same,"Plasma total GLP-1 at 3 h, individual animal",[1]; liquid meal load,4.08 pM and 1.57 pM and 0.30 pM and 2.65 pM
same,"ΔPlasma total PYY AUC (0-2 h), individual animal",[1]; liquid meal load,7.70 pMxh and -9.56 pMxh and 10.56 pMxh and 11.27 pMxh and 10.99 pMxh
same,"Plasma TG at 2 h after oil load, AVE","[1]; oil load, 10 mg/kg oral",242.5 mg/dL
same,"Plasma TG at 2 h after oil load, individual animal","[1]; oil load, 10 mg/kg oral, 10 mg/kg",165.0 mg/dL and 186.0 mg/dL and 337.8 mg/dL and 259.8 mg/dL and 264.0 mg/dL
same,"Plasma TG at 2 h after oil load, AVE","[1]; oil load, 30 mg/kg oral",219.8 mg/dL
same,"Plasma TG at 2 h after oil load, individual animal","[1]; oil load, 30 mg/kg oral, 30 mg/kg",261.0 mg/dL and 281.4 mg/dL and 164.4 mg/dL and 231.0 mg/dL and 161.4 mg/dL
same,"Plasma total GLP-1 at 3 h, AVE",[1]; oil load,17.63 pM
same,"ΔPlasma total PYY AUC (0-2 h), AVE",[1]; oil load,68.45 pMxh
same,"Plasma total GLP-1 at 3 h, individual animal",[1]; oil load,14.07 pM and 19.72 pM and 15.79 pM and 16.41 pM and 22.18 pM
same,"ΔPlasma total PYY AUC (0-2 h), individual animal",[1]; oil load,83.34 pMxh and 44.80 pMxh and 90.28 pMxh and 47.69 pMxh and 76.14 pMxh
same,concentration at 24 h,[2],580 nM
same,"Body weight change from initial, AVE",[3]; [7],16.96%
same,"Cumulative food intake, AVE",[3]; [7],119.28 g
same,"Body weight change from initial, individual animal",[3]; [8],14.99% and 19.62% and 18.91% and 14.63% and 13.72% and 24.18% and 12.96% and 16.65%
same,"Cumulative food intake, individual animal",[3]; [8],119.82 g and 117.97 g and 119.56 g and 119.18 g and 110.06 g and 129.88 g and 111.80 g and 125.96 g
same,"Body composition, Fat, AVE",[3]; [9],59.70%
same,"Body composition, Lean, AVE",[3]; [9],40.30%
same,"Body composition, Fat, individual animal",[3]; [10],63.06% and 55.96% and 61.22% and 59.99% and 59.40% and 60.55% and 59.10% and 58.29%
same,"Body composition, Lean, individual animal",[3]; [10],38.78% and 40.01% and 40.60% and 39.45% and 40.90% and 41.71% and 36.94% and 44.04%
same,"GHb, Pre","[3]; before dosing, mean ± SD, n=8",5.9 ± 0.4%
same,"Plasma ALT, Pre","[3]; before dosing, mean ± SD, n=8",378 ± 76 U·L^−1
same,"Plasma AST, Pre","[3]; before dosing, mean ± SD, n=8",333 ± 64 U·L^−1
same,"Plasma insulin, Pre","[3]; before dosing, mean ± SD, n=8",106 ± 30 ng/mL
same,"ΔGHb, AVE","[3]; change 34 days after repeated dosing, CpdB 30 mg/kg, pioglitazone 3 mg/kg oral once daily, mean",-0.45%
same,"ΔGHb, individual animal","[3]; change 34 days after repeated dosing, CpdB 30 mg/kg, pioglitazone 3 mg/kg, single animal values",0.60% and -0.50% and -0.20% and -1.10% and -0.60%
same,"Average EE, Dark, AVE",[3]; [11],0.55 kcal/h
same,"Average RQ, Dark, AVE",[3]; [11],0.87
same,"Average EE, Dark, individual animal",[3]; [12],0.61 kcal/h and 0.55 kcal/h and 0.54 kcal/h and 0.52 kcal/h and 0.53 kcal/h
same,"Average RQ, Dark, individual animal",[3]; [12],0.88 and 0.87 and 0.85 and 0.86
same,"GHb, Post",[3]; [13],5.4 ± 0.6 %
same,"Plasma ALT, Post",[3]; [13],632 ± 144 U·L^−1
same,"Plasma AST, Post",[3]; [13],492 ± 122 U·L^−1
same,"Plasma insulin, Post","[3]; day 34, CpdB 30 mg/kg, pioglitazone 3 mg/kg oral once daily, nonfasting, mean ± SD, n=8",109 ± 40 ng/mL
same,"Average EE, Light, AVE",[3]; [14],0.45 kcal/h
same,"Average RQ, Light, AVE",[3]; [14],0.83
same,"Average EE, Light, individual animal",[3]; [15],0.46 kcal/h and 0.42 kcal/h and 0.43 kcal/h and 0.44 kcal/h and 0.49 kcal/h and 0.48 kcal/h
same,"Average RQ, Light, individual animal",[3]; [15],0.82 and 0.83 and 0.84 and 0.80
same,IC50,[4],0.85 nM
same,"selectivity against related acyltransferases (DGAT1, DGAT2, and ACAT1)","[5]; MGAT2 vs DGAT1, DGAT2, ACAT1",greater than 300 fold
same,IC50,[5]; human MGAT2,8.1 nM
same,IC50,[6],> 30000 nM

# Reference: publication PMC7050258, “Inhibition of MGAT2 modulates fat‐induced gut peptide release and fat intake in normal mice and ameliorates obesity and diabetes in ob/ob mice fed on a high‐fat diet” (FEBS Open Bio, 2020)
